Measurements as given in patent publication US9994536B2, “Compounds and methods of treating neurological disorders” (TORREY PINES INSTITUTE FOR MOLECULAR STUDIES, priority 2014, dated 2018).

Experiments:
[1] = test system: sAPPα released from 7WD10 cells (CHO cells stably expressing APP751); experiment: AlphaLISA sAPPα release assay (pilot HTS); type: cell-based; details: 5 μM, 7WD10 cells, 24 h
Procedure: (1). The pilot screen was performed using five 384 well plates. […] FDA approved oncology set was screened at 10 μM final assay concentration, while thiazole derivatives were screened at 5 μM. Seven hits from thiazole derivatives were identified using Ave+3SD rule (45) as a nominal cutoff for hit determination (FIG. 1.1 (bottom)). The hits represented a novel piperazine thiazole chemotype (FIG. 1.2).
Pilot screen of AlphaLISA sAPPα release assay. 8 μL of assay media (DMEM supplemented with 10% FBS and 1× Penicillin/Streptomycin) containing 20,000 cells were added to all wells of the assay plate, except column 1 where only media was added. Plates were incubated for 4 h at 37° C., 5% CO2, 95% RH after which 80 nL of test compounds in DMSO or DMSO alone were added to respective wells using a pin tool device (VP Scientific, San Diego). After 24 h of incubation at 37° C., 5% CO2, 95% RH, sAPPα AlphaLISA beads were added in 10 μL of buffer, equilibrated for 1 h, and AlphaLISA signal was measured using a Biotek H4 Synergy microplate reader (Biotek Inc). Three parameters were calculated on a per-plate basis: (a) the signal-to-background ratio (S/B); (b) the coefficient for variation [CV; CV=(standard deviation/mean)×100)] for all compound test wells; and (c) the Z′-factor [31]. Nominally active compounds from the pilot screen were determined using mean plus 3 times the standard deviation (Mean+3SD) was used as the cut-off.
In the absence of known pharmacological agents capable of inducing an increase of sAPPα release, we tested a small molecule (FIG. 2.4A insert, compound 1 in [2]) shown to decrease Aβ release. It was shown that decrease of Aβ release could be accompanied by the increase of soluble APPα, which has a neuroprotective effect. Compound 1 was tested using 20,000 cells/well in the range of 1.2-100 μM using 3-fold serial dilutions and 24 h incubation as an assay endpoint. Increase of sAPPα release was observed only in wells where 100 μM of compound 1 was added either with or without FBS (FIG. 2.4A). Viability of cells was also tested in the presence of 1.2-100 μM of compound 1 to ascertain that the increase of sAPPα release is not due to excessive cell death. Consistent with the above described results, cells were less viable in the absence of FBS. In the presence of 1.2-33 μM of compound 1, cells were approximately 10% less viable than untreated control either with or without FBS (FIG. 2.4B).
To evaluate the ability of the assay to identify compounds that increase the release of sAPPα a pilot screen was conducted using FDA approved oncology set (n=101) and TPIMS heterocycles library (n=700). The pilot screen was performed using five 384 well plates. […]

sAPPα [2] = experiment: sAPPα ELISA, NT2 cells stably expressing APP751; type: cell-based, human; details: 24 h
Procedure: (5). To confirm the effect of THPI-244 on sAPPα levels in a neuronal cell line and by a tertiary assay, we exposed human Neuron-committed Teratocarcinoma cell line (NT2) stably expressing human APP751 to different concentrations of THPI-244 for 24 h and compared with that of Bryostatin, a classical activator of PKC known to stimulate sAPPα release. […] Levels of sAPPα were measured by ELISA using commercially available kit (cat #27734, IBL-America, Minneapolis, Minn., USA). […] Similar biphasic effect of Bryostatin was confirmed for Aβ42 also, measured again in NT2 stable cells by ELISA (cat #KHB3441, Life Technologies, Grand Island, N.Y., USA). Consistent with sAPPα, THPI-244 decreased Aβ42 levels dose-dependently starting from 50 nM (28%, p<0.05) to 2000 nM (64%, p<0.001) (n=4 independent experiments) (FIG. 1.7). Thus THPI-244 increased non-amyloidogenic processing of APP in NT2 cells.

P75NTR = experiment: Signal transduction analysis, P75NTR; type: cell-based, human; details: NT2 cells
From the text: (2). THPI-244 increases sAPPα by a novel mechanism of upregulating TrkA, a neurotrophic receptor. Therefore, in addition to increasing neuroprotective sAPPα and decreasing toxic Aβ, THPI-244 mediated increased TrkA protein levels are expected to provide neurotrophic support. Following the validation of the effect of THPI-244 in increasing sAPPα levels in CHO cells, NT2 cells, AD fibroblasts and human primary neurons, we were interested in identifying the molecular target of THPI-244 for unraveling the molecular mechanism by which it increases sAPPα which in turn can predict toxicity profile and whether to pursue long-term studies. Increased protein levels of both native and phosphorylated form of TrkA in NT2 cells and mouse brains by THPI-244 validated TrkA as the target.

human primary neurons = experiment: Neurite outgrowth, Sholl analysis of dendritic intersections; type: cell-based
From the text: (4). The most important property of THPI-244 is its ability to increase neurite outgrowth and dendritic intersections in human primary neurons. Since both TrkA and sAPPα promote neuron growth and provide trophic support, we tested whether treatment of human primary neurons with THPI-244 induces neurite outgrowth. […] Considering an enormous potential for such an excellent results in human neurons, we did systematic analysis by also treating neurons in the presence of TrkA inhibitor to verify if the increased neurite outgrowth is mediated by TrkA receptor. Sholl analysis using ImageJ software of individual neurons (at least 30 per group) immunostained for MAP2 antibody confirmed our initial findings. […] This confirmed that THPI-244 increases TrkA protein levels which has vital role in regulating neuritic outgrowth.

sAPPα [3] = experiment: sAPPα ELISA, fibroblasts derived from AD patients; type: cell-based, human; details: 24 h
Procedure: (1). […] Therefore, we first used fibroblasts derived from AD patients (AG06263C, Coriell Cell repository, supported by NINDS/NIH) and exposed to THPI-244 for 24 h and measured sAPPα release by ELISA as done above for NT2 cells. […] We also confirmed dose-dependent effect of THPI-244 on sAPPα levels in human primary neurons transiently transfected with APP751 with Swedish mutation which is trafficked differently from WT APP and releases more sAPPα. Human neurons were grown on specially coated glass coverslips (cat #GG-18-PDL, NeuVitro, Germany). We could reproducibly achieve nearly 30% transfection efficiency using a nanoparticle based transfection reagent called Neuromag (cat #NM150299, OZ Biosciences, France).

O=C(Cc1ccccc1)N[C@H](CNc1nc(CN2CCN(C(=O)Cc3ccccc3)CC2)cs1)c1ccccc1 [THPI-244]
increase of Alpha signal (sAPPα release) [1]: ~2 fold | lowest concentration with significant increase of sAPPα (sAPPα [2]): 50 nM | effect on P75NTR (P75NTR): did not affect | number of dendritic intersections (human primary neurons; treated 2DIV to 6DIV): highly significant increase | number of dendritic intersections (human primary neurons; with TrkA inhibitor, 2DIV to 6DIV): almost completely prevented the increased intersections | lowest concentration with significant increase of sAPPα (sAPPα [3]): 50 nM
